Measured values from the supplement of paper PMC10307832.

Each cell line was assayed with C1CC(C2=C(C1)C3=C(N2)C=CC(=C3)Cl)C(=O)N [Selisistat] + CS(=O)(=O)N1CCN(Cc2cc3nc(-c4cccc5[nH]ncc45)nc(N4CCOCC4)c3s2)CC1 [Pictilisib] (partner 1 µM) (assay: relative viability (nuclei count vs DMSO), 5 days (fraction); higher = more cells survive). Details: first compound 0.4 µM.
In short: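 Relative viability divides the nuclei count in treated wells by that in vehicle wells. Lung cancer cell lines were seeded in 1536-well plates, dosed by pin tool the next day, and fixed and stained after 5 days in one step with final 0.05% Triton X-100, 1% formaldehyde and 1 ug/ml Hoechst. Dosing was a single drug or a fixed anchor-drug dose plus five library-drug doses (not always all listed) in √10 steps, and values are medians of duplicate plates imaged at 4×.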
With NCI-H2085 the relative viability was 0.524. With Calu-6 the relative viability was 0.867. In the case of HCC-366, the relative viability is reported as 0.098. With NCI-H1666 the relative viability was 0.421. Work on NCI-H596 yielded a relative viability of 0.372. LK-2 showed a relative viability of 0.645. NCI-H2087 was tested, and the relative viability was 0.977. In the case of SK-MES-1, the relative viability is reported as 0.37. Work on H3255 yielded a relative viability of 0.508. COR-L23 showed a relative viability of 0.821. COR-L 105 showed a relative viability of 0.432. With IA-LM the relative viability was 0.277. LOU-NH91 was tested, and the relative viability was 0.538. With NCI-H2170 the relative viability was 0.323. Cell Line NCI-H2405 has a relative viability of 0.431. HOP-62 gave a relative viability of 0.865. HCC-44 showed a relative viability of 0.633. For A549, the relative viability was 0.605. LU99A gave a relative viability of 0.336. BEN was tested, and the relative viability was 0.581. HARA showed a relative viability of 0.492. Work on HCC-78 yielded a relative viability of 0.253. Work on NCI-H322M yielded a relative viability of 0.562. LCLC-97TM1 was tested, and the relative viability was 0.148. Work on NCI-H2009 yielded a relative viability of 0.928. A-427 gave a relative viability of 0.625. NCI-H661 showed a relative viability of 0.476. NCI-H1734 was tested, and the relative viability was 0.479. For NCI-H460, the relative viability was 0.439. NCI-H2347 gave a relative viability of 0.374. For SK-LU-1, the relative viability was 0.65. NCI-H1395 showed a relative viability of 0.617.

Same assay, conditions: first compound 1.265 µM
NCI-H2085 gave a relative viability of 0.406. Work on Calu-6 yielded a relative viability of 0.886. With HCC-366 the relative viability was 0.135. For NCI-H1666, the relative viability was 0.401. Work on NCI-H596 yielded a relative viability of 0.411. LK-2 showed a relative viability of 0.502. NCI-H2087 gave a relative viability of 0.911. For SK-MES-1, the relative viability was 0.309. H3255 showed a relative viability of 0.41. COR-L23 gave a relative viability of 0.78. In the case of COR-L 105, the relative viability is reported as 0.412. For IA-LM, the relative viability was 0.368. With LOU-NH91 the relative viability was 0.496. For NCI-H2170, the relative viability was 0.338. For HOP-62, the relative viability was 0.651. HCC-44 gave a relative viability of 0.551. In the case of A549, the relative viability is reported as 0.478. Work on LU99A yielded a relative viability of 0.35. For BEN, the relative viability was 0.578. In the case of HARA, the relative viability is reported as 0.366. HCC-78 showed a relative viability of 0.229. Cell Line NCI-H322M has a relative viability of 0.525. LCLC-97TM1 was tested, and the relative viability was 0.191. For NCI-H2009, the relative viability was 0.827. A-427 showed a relative viability of 0.622. NCI-H661 gave a relative viability of 0.478. For NCI-H1734, the relative viability was 0.488. For NCI-H460, the relative viability was 0.282. For NCI-H2347, the relative viability was 0.714. SK-LU-1 was tested, and the relative viability was 0.637. NCI-H1395 was tested, and the relative viability was 0.609.

Same assay, conditions: first compound 4 µM
Cell Line NCI-H2085 has a relative viability of 0.454. Calu-6 was tested, and the relative viability was 0.895. In the case of HCC-366, the relative viability is reported as 0.129. Work on NCI-H1666 yielded a relative viability of 0.312. Work on NCI-H596 yielded a relative viability of 0.391. LK-2 was tested, and the relative viability was 0.575. With NCI-H2087 the relative viability was 0.321. With SK-MES-1 the relative viability was 0.315. H3255 was tested, and the relative viability was 0.481. In the case of COR-L23, the relative viability is reported as 0.899. Work on COR-L 105 yielded a relative viability of 0.322. IA-LM showed a relative viability of 0.353. In the case of LOU-NH91, the relative viability is reported as 0.485. Work on NCI-H2170 yielded a relative viability of 0.275. With HOP-62 the relative viability was 0.449. For HCC-44, the relative viability was 0.595. A549 showed a relative viability of 0.525. LU99A was tested, and the relative viability was 0.404. With BEN the relative viability was 0.459. HARA was tested, and the relative viability was 0.348. HCC-78 gave a relative viability of 0.172. Cell Line LCLC-97TM1 has a relative viability of 0.134. NCI-H2009 was tested, and the relative viability was 0.323. A-427 gave a relative viability of 0.327. NCI-H661 showed a relative viability of 0.343. NCI-H1734 showed a relative viability of 0.404. NCI-H460 gave a relative viability of 0.164. With NCI-H2347 the relative viability was 0.294. SK-LU-1 gave a relative viability of 0.429. NCI-H1395 was tested, and the relative viability was 0.564.

Same assay, conditions: first compound 12.65 µM
With NCI-H2085 the relative viability was 0.575. With Calu-6 the relative viability was 0.872. HCC-366 was tested, and the relative viability was 0.0936. Cell Line NCI-H1666 has a relative viability of 0.423. Work on NCI-H596 yielded a relative viability of 0.434. LK-2 was tested, and the relative viability was 0.499. With NCI-H2087 the relative viability was 0.873. SK-MES-1 was tested, and the relative viability was 0.329. H3255 gave a relative viability of 0.494. COR-L23 was tested, and the relative viability was 0.701. Work on COR-L 105 yielded a relative viability of 0.405. IA-LM showed a relative viability of 0.502. In the case of LOU-NH91, the relative viability is reported as 0.532. With NCI-H2170 the relative viability was 0.303. NCI-H2405 was tested, and the relative viability was 0.441. For HOP-62, the relative viability was 0.619. With HCC-44 the relative viability was 0.599. A549 showed a relative viability of 0.55. Cell Line LU99A has a relative viability of 0.373. BEN showed a relative viability of 0.548. HARA gave a relative viability of 0.307. HCC-78 gave a relative viability of 0.196. NCI-H322M gave a relative viability of 0.549. In the case of LCLC-97TM1, the relative viability is reported as 0.185. NCI-H2009 showed a relative viability of 0.609. A-427 gave a relative viability of 0.656. With NCI-H661 the relative viability was 0.348. Work on NCI-H1734 yielded a relative viability of 0.486. NCI-H460 showed a relative viability of 0.317. NCI-H2347 gave a relative viability of 0.541. SK-LU-1 showed a relative viability of 0.695. For NCI-H1395, the relative viability was 0.656.

Same assay, conditions: first compound 40 µM
In the case of NCI-H2085, the relative viability is reported as 0.467. Work on Calu-6 yielded a relative viability of 0.925. With HCC-366 the relative viability was 0.207. For NCI-H1666, the relative viability was 0.318. In the case of NCI-H596, the relative viability is reported as 0.434. LK-2 was tested, and the relative viability was 0.456. Cell Line NCI-H2087 has a relative viability of 0.841. With SK-MES-1 the relative viability was 0.366. For H3255, the relative viability was 0.532. With COR-L23 the relative viability was 0.689. With COR-L 105 the relative viability was 0.418. Cell Line IA-LM has a relative viability of 0.375. With LOU-NH91 the relative viability was 0.512. Work on NCI-H2170 yielded a relative viability of 0.378. NCI-H2405 gave a relative viability of 0.431. In the case of HOP-62, the relative viability is reported as 0.935. HCC-44 showed a relative viability of 0.436. A549 was tested, and the relative viability was 0.449. For LU99A, the relative viability was 0.299. Cell Line BEN has a relative viability of 0.521. In the case of HARA, the relative viability is reported as 0.401. Work on HCC-78 yielded a relative viability of 0.181. For NCI-H322M, the relative viability was 0.604. For LCLC-97TM1, the relative viability was 0.218. With NCI-H2009 the relative viability was 0.795. Work on A-427 yielded a relative viability of 0.73. For NCI-H661, the relative viability was 0.38. Work on NCI-H1734 yielded a relative viability of 0.445. NCI-H460 was tested, and the relative viability was 0.33. With NCI-H2347 the relative viability was 0.56. SK-LU-1 was tested, and the relative viability was 0.635. In the case of NCI-H1395, the relative viability is reported as 0.557.

What follows are cell lines tested with C1CC(C2=C(C1)C3=C(N2)C=CC(=C3)Cl)C(=O)N [Selisistat] (assay: relative viability (nuclei count vs DMSO), 5 days (fraction); higher = more cells survive). Details: 0.4 µM.
In short: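 Acceptance criteria were a control CV below 25% and at least one doubling per plate. Lung cancer cell lines in 1536-well plates got five library-drug doses (not always all listed) √10 apart by pinning and were left 5 days with no medium change. Viability divides treated-well nuclei by vehicle-well nuclei and is the median across plates. Nuclei were counted by MetaXpress from 4× Hoechst images.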
In the case of NCI-H2085, the relative viability is reported as 1.11.
